In patent publication US20240174727A1, “LONG-ACTING NATRIURETIC PEPTIDES AND USES THEREOF” (Eli Lilly and Company, priority 2022, published 2024):
Several values for one entry are separate records, joined by “and”; a condition that tells them apart may be missing. Equal values may be shown once. Numbered stars: 1 amine (or outer) side, 2 acyl side, 3 side chain; on linkers, the order of the positions; unused ones are H or OH. Bridge positions count the residues as written; N and C are the ends. Square brackets hold non-standard residues; d marks the D form. * marks the point of attachment. PEG24 = NCCOCCOCCOCCOCCOCCOCCOCCOCCOCCOCCOCCOCCOCCOCCOCCOCCOCCOCCOCCOCCOCCOCCOCCOCCC(=O)O; C20 diacid = O=C(O)CCCCCCCCCCCCCCCCCCC(=O)*; γGlu = O=C(O)[C@H](CCC(=O)[*:2])N[*:1]; CH2 = C([*:1])[*:2]; βAla = NCCC(=O)O

Experiments:
human NPRA (human) = human NPRA (human) (UniProt P16066); assay: cell-based or functional assay
rat NPRA = target: T1, rat NPRA (Rattus norvegicus, UniProt P18910); assay: Rat NPRA cGMP activity assay (HTRF) in HEK293 cells overexpressing NPRA; type: cell-based; settings: assay buffer with 0.1% casein, read-out: cGMP Assay (EC50, pM) w/Casein rNPRA
T1 construct: Full-Length cDNA Cloning and Generation of Cell Lines Overexpressing Natriuretic Peptide Receptors (NPRs); expressed in transfected cells; host or cells: Jump-in T-Rex HEK293 cells, pJTI R4 CMV-TO MCS pA vector, tetracycline induction
T1 sequence (P18910 29-1057): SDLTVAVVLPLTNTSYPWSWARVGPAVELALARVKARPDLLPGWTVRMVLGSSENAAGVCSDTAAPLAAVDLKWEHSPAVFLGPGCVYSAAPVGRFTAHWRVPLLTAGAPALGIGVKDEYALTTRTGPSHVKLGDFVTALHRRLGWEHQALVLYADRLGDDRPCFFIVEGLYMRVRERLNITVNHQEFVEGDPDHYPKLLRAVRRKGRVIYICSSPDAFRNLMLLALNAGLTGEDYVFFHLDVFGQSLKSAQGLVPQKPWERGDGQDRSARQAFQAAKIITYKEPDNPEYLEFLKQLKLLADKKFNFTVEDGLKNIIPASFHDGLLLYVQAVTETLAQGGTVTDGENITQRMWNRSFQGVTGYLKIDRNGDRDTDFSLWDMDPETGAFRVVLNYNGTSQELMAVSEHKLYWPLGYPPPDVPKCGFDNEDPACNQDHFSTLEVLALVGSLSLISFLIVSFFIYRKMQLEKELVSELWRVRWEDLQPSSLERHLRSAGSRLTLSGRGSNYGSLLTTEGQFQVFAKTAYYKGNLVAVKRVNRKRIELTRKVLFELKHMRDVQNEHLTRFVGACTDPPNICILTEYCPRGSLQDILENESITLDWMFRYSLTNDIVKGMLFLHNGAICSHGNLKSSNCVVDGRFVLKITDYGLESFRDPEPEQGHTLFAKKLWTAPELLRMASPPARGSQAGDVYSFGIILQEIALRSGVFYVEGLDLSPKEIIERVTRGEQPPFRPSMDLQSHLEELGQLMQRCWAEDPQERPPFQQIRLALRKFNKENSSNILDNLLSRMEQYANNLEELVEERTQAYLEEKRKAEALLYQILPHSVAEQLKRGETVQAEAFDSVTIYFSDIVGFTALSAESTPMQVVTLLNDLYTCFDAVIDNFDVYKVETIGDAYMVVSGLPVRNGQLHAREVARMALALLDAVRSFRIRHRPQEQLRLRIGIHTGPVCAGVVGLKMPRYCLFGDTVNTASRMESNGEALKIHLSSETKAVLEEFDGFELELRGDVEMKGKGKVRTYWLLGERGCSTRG
Outline: (§1)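 Tetracycline-induced (300 ng/mL, 48 h) T-Rex HEK293 cells expressing NPRA, 4000 cells/well, treated 40 min at room temperature with polypeptide (8 points, 10 μM to 1 pM) in HBSS/HEPES buffer with 0.5 mM IBMX, pH 7.4. cGMP by HTRF, normalised to 100 nM amidated rat ANP and buffer.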

[1] = Pharmacokinetics in male Sprague Dawley rats; type: in vivo; settings: rat, sc, mean, single subcutaneous administration of 200 nMol/kg, plasma; for half-life: read-out: t½ (converted)
Experimental: The pharmacokinetics of the exemplary analogs are evaluated following a single subcutaneous administration of […] to male Sprague Dawley rats. Blood samples are collected over 120 hours, and resulting individual plasma concentrations are used to calculate pharmacokinetic parameters. Peptide plasma (K3 EDTA) concentrations are determined using a qualified LC/MS method that measured the intact mass of the ANP polypeptide. Each peptide and an analog as an internal standard are extracted from 100% specie specified plasma using methanol with 0.1% formic acid. A Thermo Q-Exactive, High Resolution Instrument, and a Thermo Easy Spray PepMap are combined for LC/MS detection.

human NPRA = target: T2, human NPRA (Homo sapiens, UniProt P16066); assay: Human NPRA cGMP activity assay (HTRF) in HEK293 cells overexpressing NPRA; type: cell-based; settings: cGMP Assay (EC50, pM) w/Casein hNPRA, assay buffer with 0.1% casein
T2 construct: Full-Length cDNA Cloning and Generation of Cell Lines Overexpressing Natriuretic Peptide Receptors (NPRs); expressed in transfected cells; host or cells: Jump-in T-Rex HEK293 cells, pJTI R4 CMV-TO MCS pA vector, tetracycline induction
T2 sequence (P16066 33-1061): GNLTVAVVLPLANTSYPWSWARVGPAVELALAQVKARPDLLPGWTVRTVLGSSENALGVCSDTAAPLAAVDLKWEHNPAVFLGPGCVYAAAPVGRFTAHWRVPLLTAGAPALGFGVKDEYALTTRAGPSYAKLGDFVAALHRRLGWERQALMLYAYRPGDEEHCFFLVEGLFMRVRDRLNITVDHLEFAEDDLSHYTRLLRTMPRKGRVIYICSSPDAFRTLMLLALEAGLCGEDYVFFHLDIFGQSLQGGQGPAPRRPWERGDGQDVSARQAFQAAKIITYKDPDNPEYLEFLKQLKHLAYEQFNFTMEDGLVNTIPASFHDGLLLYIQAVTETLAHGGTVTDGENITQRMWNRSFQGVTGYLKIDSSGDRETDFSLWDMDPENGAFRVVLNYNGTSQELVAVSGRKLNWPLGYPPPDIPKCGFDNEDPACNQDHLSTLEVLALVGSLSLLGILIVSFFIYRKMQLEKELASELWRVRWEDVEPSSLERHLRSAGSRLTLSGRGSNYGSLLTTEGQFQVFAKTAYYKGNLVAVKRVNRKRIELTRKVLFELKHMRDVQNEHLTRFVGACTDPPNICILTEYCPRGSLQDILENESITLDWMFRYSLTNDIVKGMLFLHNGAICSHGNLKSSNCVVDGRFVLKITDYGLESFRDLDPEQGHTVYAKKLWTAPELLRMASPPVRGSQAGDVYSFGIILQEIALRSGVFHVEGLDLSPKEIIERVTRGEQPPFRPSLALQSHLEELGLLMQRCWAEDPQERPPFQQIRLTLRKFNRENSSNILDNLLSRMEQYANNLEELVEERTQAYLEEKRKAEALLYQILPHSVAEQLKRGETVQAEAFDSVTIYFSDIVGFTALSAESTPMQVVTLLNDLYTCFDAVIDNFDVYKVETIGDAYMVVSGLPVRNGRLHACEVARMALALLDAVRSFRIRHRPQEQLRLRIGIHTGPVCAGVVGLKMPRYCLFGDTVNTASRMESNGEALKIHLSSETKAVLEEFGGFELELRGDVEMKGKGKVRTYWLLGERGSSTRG
Outline: as §1

Row | cGMP Assay (EC50, pM) w/BSA, hNPRA (human NPRA (human)) | cGMP Assay (EC50, pM) w/Casein, hNPRA (human NPRA (human)) | Compound | EC50 (rat NPRA) | CL/F [1] | half-life [1] | EC50 (human NPRA)
1 | 2960 pM and 1270 pM | 1010 pM and 669 pM | HOOC-(CH2)18-CO-(γGlu)-EKEKEKG-PEG24-EK-βAla-RSS[…]PSFRHGGP-NH2 (peptide) | – | – | – | –
2 | – | – | CC[C@H](C)[C@@H]1NC(=O)[C@H](CCCNC(=N)N)NC(=O)[C@H](CC(=O)O)NC(=O)[C@H]([C@@H](C)CC)NC(=O)[C@H](CCCNC(=N)N)NC(=O)[C@H](CCCCN)NC(=O)CNC(=O)[C@H](Cc2ccccc2)NC(=O)[C@@H](NC(=O)[C@H](CO)NC(=O)[C@H](CO)NC(=O)[C@H](CCCNC(=N)N)NC(=O)CCNC(=O)[C@H](CCCCN)NC(=O)[C@H](CCC(=O)O)NC(=O)CCOCCOCCOCCOCCOCCOCCOCCOCCOCCOCCOCCOCCOCCOCCOCCOCCOCCOCCOCCOCCOCCOCCOCCOCCNC(=O)CNC(=O)[C@H](CCCCN)NC(=O)[C@H](CCC(=O)O)NC(=O)[C@H](CCCCN)NC(=O)[C@H](CCC(=O)O)NC(=O)[C@H](CCCCN)NC(=O)[C@H](CCC(=O)O)NC(=O)CC[C@H](NC(=O)CCCCCCCCCCCCCCCCCCC(=O)O)C(=O)O)CSCSC[C@@H](C(=O)N2CCC[C@H]2C(=O)N[C@@H](CO)C(=O)N[C@@H](Cc2ccccc2)C(=O)N[C@@H](CCCNC(=N)N)C(=O)N[C@@H](Cc2c[nH]cn2)C(=O)NCC(=O)N[C@@H](CO)C(=O)N2CCC[C@H]2C(=O)N[C@@H](CO)C(=O)N[C@@H](CO)C(=O)NCC(=O)N[C@@H](C)C(=O)N2CCC[C@H]2C(=O)N2CCC[C@H]2C(=O)N2CCC[C@H]2C(=O)N[C@@H](CO)C(N)=O)NC(=O)CNC(=O)[C@H](CC(C)C)NC(=O)CNC(=O)[C@H](CO)NC(=O)[C@H](CCC(N)=O)NC(=O)[C@H](Cc2c[nH]cn2)NC(=O)CNC1=O [Example 4] | 22500 pM | 4.3 mL/h/kg | 900 min | –
3 | – | – | {C20 diacid-γGlu}-EKEKEKG[PEG24]EK[βAla]RSSCFGGKIDRIGHYSGLGCPSFRHGSPSSGAPPPS-NH2 (linker 15-31 via CH2) [Example 6] | – | 6.5 mL/h/kg | 1020 min | 1530 pM
